The series has as its target IRF4. As to conditions: ASO.

Several values for one entry are separate records, joined by “and”; a condition that tells them apart may be missing. Equal values may be shown once. After the bases stand the sugars from the 5' end (letter, count) and the backbone: PS all phosphorothioate, else s phosphorothioate and o phosphodiester by linkage. Methylation of C is not given here. e = 2'-O-(2-methoxyethyl) (MOE); k = constrained ethyl (cEt); d = 2'-deoxy (DNA)

As for “GGGATTATATACTGGT (sugars kdddddddddkekeke, PS)”, the target mRNA inhibition (MM.1R, 1 µM) turned out to be 29%.
In the case of “GGGATTATATACTGGT (sugars kkdddddddddkdkdk, PS)”, for the setting “MM.1R, 1 µM”, the target mRNA inhibition was determined as 41%.
Take GGGCTTCCTAGGTTTC (sugars k3 d10 k3, PS): the target mRNA inhibition (SK-MEL-28, 4 µM) turned out to be 39%.
For the sequence GGGTACATGGCAGTGG (sugars k3 d10 k3, PS), the target mRNA inhibition was found to be 19% (SK-MEL-28, 0.185 µM); 68% (SK-MEL-28, 4 µM); 76% (SK-MEL-28, 5 µM); 92% (SK-MEL-28, 15 µM).
With GGGTACCCTGCGCTGC (sugars k3 d10 k3, PS), for the setting “SK-MEL-28, 4 µM”, the target mRNA inhibition is 44%.
Same read-out and setting: the same measure for GGGTCCTCCGCCCGCT (sugars k3 d10 k3, PS): 28%; for GGTAAACTGCCTTAGG (sugars k3 d10 k3, PS): 25%; for GGTAAAGGAGTGCAGG (sugars k3 d10 k3, PS): 46%.
Same read-out and setting: then GGTAAAGGCACATTCC (sugars k3 d10 k3, PS), with 47%; and GGTAACAATACTGTAA (sugars k3 d10 k3, PS), with 59%; and GGTAAGGGCCCCGTGA (sugars k3 d10 k3, PS), with 33%.
As for GGTACGGGATTTCCGG (sugars k3 d10 k3, PS), the target mRNA inhibition (MM.1R, 1 µM) was 12%.
As for GGTCAATTTTCACAGT (sugars k3 d10 k3, PS), the target mRNA inhibition (SK-MEL-28, 4 µM) was found to be 64%.
The same measure, in the same setting: then GGTCACAGGTAAGGGC (sugars k3 d10 k3, PS), with 25%; and GGTGAAACTGAGAGTG (sugars k3 d10 k3, PS), with 8%; and GGTGGCTCAGCAGCTT (sugars k3 d10 k3, PS), with 37%.
As for “GGTTGGCTGGTCTTTG (sugars kkddddddddddkeke, PS)”, the target mRNA inhibition is 18% (MM.1R, 0.0625 µM); 33% (MM.1R, 0.25 µM); 76% and 60% (MM.1R, 1 µM); 72% (MM.1R, 4 µM).
“GGTTGGCTGGTCTTTG (sugars kkdddddddddekeke, PS)”: the target mRNA inhibition was 34% (MM.1R, 0.0625 µM); 47% (MM.1R, 0.25 µM); 73% and 66% (MM.1R, 1 µM); 84% (MM.1R, 4 µM).
On to GGTTTATTAGCTTTCT (sugars k3 d10 k3, PS), for which the target mRNA inhibition (SK-MEL-28, 4 µM) was -1%.
On the same count and under the same terms, the same measure for GTAAACTGCCTTAGGG (sugars k3 d10 k3, PS): 44%; for GTAAAGGTAAAGGCAC (sugars k3 d10 k3, PS): 42%.
On the same count and under the same terms, the same measure for GTAAATGAGTCGGTCA (sugars k3 d10 k3, PS): 79%; for GTAACAATACTGTAAG (sugars k3 d10 k3, PS): 55%.
The same measure, in the same setting: then GTAACTCAGGCACCAC (sugars k3 d10 k3, PS), with 47%.
With GTAACTGACACGCACA (sugars k3 d10 k3, PS), the target mRNA inhibition (SK-MEL-28, 4 µM) worked out at 51%.
On the same count and under the same terms, the same measure for GTAACTTGACTTGAGA (sugars k3 d10 k3, PS): 49%; for GTAAGAGGGCAGTCAA (sugars k3 d10 k3, PS): 44%.
On to GTAAGATCTCCATGGT (sugars k3 d10 k3, PS), for which the target mRNA inhibition (MM.1R, 1 µM) came out at 17%.
Turning to GTAAGTGATAGGTATA (sugars k3 d10 k3, PS), the target mRNA inhibition (SK-MEL-28, 4 µM) was 76% and 68%.
For the sequence GTACACTTTGTACGGG (sugars k3 d10 k3, PS), the target mRNA inhibition (SK-MEL-28, 4 µM) was 64%.
Still for that read-out and setting: then GTACAGGACAGGTAAA (sugars k3 d10 k3, PS), with 25%.
GTACAGTCCACTCCAC (sugars k3 d10 k3, PS): under “SK-MEL-28, 4 µM”, the target mRNA inhibition worked out at 10%.
Take GTACATGGCAGTGGAG (sugars k3 d10 k3, PS): the target mRNA inhibition (SK-MEL-28, 4 µM) came out at 56%.
The same measure, in the same setting: then GTAGAAGCCCACAAGA (sugars k3 d10 k3, PS), with -4%.
GTAGAGTGAGATGCGG (sugars k3 d10 k3, PS): the target mRNA inhibition (MM.1R, 0.0625 µM) is -4%; the target mRNA inhibition (MM.1R, 0.25 µM) turned out to be 16%; the target mRNA inhibition (MM.1R, 1 µM) is 51% and 40%; the target mRNA inhibition (MM.1R, 4 µM) is 70%.
Turning to GTAGGTAGGCACCTGT (sugars k3 d10 k3, PS), the target mRNA inhibition (SK-MEL-28, 4 µM) was found to be 75%.
“GTAGTATGAGAAACGG (sugars kkddddddddddkeke, PS)”: the target mRNA inhibition (MM.1R, 1 µM) is 28%.
In the case of “GTAGTATGAGAAACGG (sugars kkdddddddddkekek, PS)”, where the note is “MM.1R, 1 µM”, the target mRNA inhibition came out at 50%.
Take “GTAGTATGAGAAACGG (sugars kkkdddddddddkeke, PS)”: the target mRNA inhibition (MM.1R, 1 µM) was 15%.
Same read-out and setting: then “GTAGTATGAGAAACGG (sugars kkkddddddddkekek, PS)”, with 43%.
As to GTATTAATATTCTGAC (sugars k3 d10 k3, PS), the target mRNA inhibition (SK-MEL-28, 4 µM) was 63%.
With GTATTTTTCCGTTCCT (sugars k3 d10 k3, PS), the target mRNA inhibition (H929, 0.04 µM) was 33% and 14%; the target mRNA inhibition (KMS11, 0.2 µM) was 82% and 96%; the target mRNA inhibition (MM.1R, 0.0625 µM) was determined as 34%; the target mRNA inhibition (MM.1R, 0.25 µM) came to 57%; the target mRNA inhibition (MM.1R, 1 µM) is 84% and 74%; the target mRNA inhibition (MM.1R, 4 µM) is 93%.
With GTCACGCCCGCAAAAG (sugars k3 d10 k3, PS), the target mRNA inhibition (SK-MEL-28, 4 µM) worked out at 39%.
On to GTCATATGGCTAAACC (sugars k3 d10 k3, PS), for which the target mRNA inhibition (MM.1R, 1 µM) turned out to be 23%.
The same measure, in the same setting: then GTCCACATACCTGAAA (sugars k3 d10 k3, PS), with 8%.
For the sequence GTCCGGTTAGCTCATC (sugars k3 d10 k3, PS), the target mRNA inhibition (SK-MEL-28, 4 µM) turned out to be 45%.
The same measure, in the same setting: the same measure for GTCCTGCTTGCCCGCG (sugars k3 d10 k3, PS): 31%.
In the case of GTCCTTCAGATTTACA (sugars k3 d10 k3, PS), the target mRNA inhibition (MM.1R, 1 µM) was -17%.
Consider GTCTACTTGAGTCTGT (sugars k3 d10 k3, PS), for which, under “SK-MEL-28, 4 µM”, the target mRNA inhibition was 51%.
On the same count and under the same terms, then GTCTAGACAGAGAGTC (sugars k3 d10 k3, PS), with 2%.
Regarding GTCTAGCTGGGTTTTC (sugars k3 d10 k3, PS), the target mRNA inhibition (SK-MEL-28, 4 µM) amounted to 63%.
Same read-out and setting: then GTCTCTACCTACTCCA (sugars k3 d10 k3, PS), with 41%.
With GTCTGAGATGTCCAGC (sugars k3 d10 k3, PS), the target mRNA inhibition (MM.1R, 1 µM) is 7%.
For GTCTGAGGGAATCTGC (sugars k3 d10 k3, PS), under “SK-MEL-28, 4 µM”, the target mRNA inhibition came to 49%.
For GTCTGGCTAGCAGAGG (sugars k3 d10 k3, PS), the target mRNA inhibition (SK-MEL-28, 0.185 µM) was 10%; the target mRNA inhibition (SK-MEL-28, 4 µM) is 66%; the target mRNA inhibition (SK-MEL-28, 5 µM) came out at 68%; the target mRNA inhibition (SK-MEL-28, 15 µM) is 89%.
For the sequence GTCTTAAGGGTTCAAG (sugars k3 d10 k3, PS), where the note is “SK-MEL-28, 4 µM”, the target mRNA inhibition turned out to be 49%.
On the same count and under the same terms, the same measure for GTCTTCCACAAGAACT (sugars k3 d10 k3, PS): 47%; for GTCTTTGGGATTCTAT (sugars k3 d10 k3, PS): 65%; for GTGAAACAGCAGTTCT (sugars k3 d10 k3, PS): 62%.
For the sequence GTGACATAAAGGACCC (sugars k3 d10 k3, PS), the target mRNA inhibition (MM.1R, 1 µM) was determined as 10%.
Take GTGACTGGAGAGCAAT (sugars k3 d10 k3, PS): the target mRNA inhibition (SK-MEL-28, 4 µM) was 74%.
Take “GTGATAGCTGAGCTGA (sugars kddddddddddkekek, PS)”: the target mRNA inhibition (MM.1R, 1 µM) worked out at 29%.
The same measure, in the same setting: then “GTGATAGCTGAGCTGA (sugars kdddddddddkekeke, PS)”, with 16%; and “GTGATAGCTGAGCTGA (sugars kkdddddddddkdkdk, PS)”, with 34%.
Still for that read-out and setting: then “GTGATAGCTGAGCTGA (sugars kkdddddddddkekek, PS)”, with 39%.
“GTGATGTCAGGTTTTC (sugars k3 d9 k3 e1, PS)”: the target mRNA inhibition was 16% (MM.1R, 0.074 µM); 41% (MM.1R, 0.222 µM); 66% (MM.1R, 0.666 µM); 71% (MM.1R, 1 µM); 85% (MM.1R, 2 µM).
“GTGATGTCAGGTTTTC (sugars kdddddddddkekeke, PS)”: for the setting “MM.1R, 1 µM”, the target mRNA inhibition stood at 30%.
For “GTGATGTCAGGTTTTC (sugars kkdddddddddekeke, PS)”, the target mRNA inhibition (MM.1R, 0.074 µM) is 14%; the target mRNA inhibition (MM.1R, 0.222 µM) is 16%; the target mRNA inhibition (MM.1R, 0.666 µM) worked out at 30%; the target mRNA inhibition (MM.1R, 1 µM) is 58%; the target mRNA inhibition (MM.1R, 2 µM) was 59%.
Take “GTGATGTCAGGTTTTC (sugars kkkdddddddddkeke, PS)”: the target mRNA inhibition (MM.1R, 1 µM) was 34%.
In the case of “GTGATGTCAGGTTTTC (sugars kkkddddddddkekek, PS)”, the target mRNA inhibition was found to be 14% (MM.1R, 0.074 µM); 35% (MM.1R, 0.222 µM); 54% (MM.1R, 0.666 µM); 57% (MM.1R, 1 µM); 77% (MM.1R, 2 µM).
As for GTGCAAGATGACTCCA (sugars k3 d10 k3, PS), the target mRNA inhibition (SK-MEL-28, 4 µM) is 56%.
Still for that read-out and setting: then GTGCAGGAGAGGCTGA (sugars k3 d10 k3, PS), with 32%.
As for “GTGTCTAAAGTCCCAT (sugars kkddddddddddkeke, PS)”, the target mRNA inhibition (MM.1R, 1 µM) is 9% and 6%.
Turning to GTGTGATTAATTCTCC (sugars k3 d10 k3, PS), the target mRNA inhibition (MM.1R, 0.0625 µM) was -15%; the target mRNA inhibition (MM.1R, 0.25 µM) is 8%; the target mRNA inhibition (MM.1R, 1 µM) is 64% and 44%; the target mRNA inhibition (MM.1R, 4 µM) turned out to be 87%.
In the case of “GTGTGCTTGCCAAGCC (sugars k2 d9 e3 k2, PS)”, the target mRNA inhibition (MM.1R, 1 µM) was 75% and 62%.
The same measure, in the same setting: the same measure for “GTGTGCTTGCCAAGCC (sugars kkdddddddddekeke, PS)”: 17% and 19%.
GTTATCTATGGAAACC (sugars k3 d10 k3, PS): the target mRNA inhibition (SK-MEL-28, 4 µM) turned out to be 42%.
The same measure, in the same setting: then GTTCAAGTATTAAGAT (sugars k3 d10 k3, PS), with 29%.

The record behind these values is the OligoGym collection.
